Values joined by “and” are separate entries in the source; they are usually repeats but may differ in a detail not shown here. Equal entries are not always repeated. “Also recorded” adds a separate entry of the source.
Assays:
[1] = system: Peripheral blood mononuclear cells (PBMC); assay: Cytokine induction in human cells (in vitro human blood cell system); assay type: cell-based; details: generally tested at 30-0.014 μM, incubated 18 to 24 hours, ELISA
From the text: An in vitro human blood cell system is used to assess cytokine induction. Activity is based on the measurement of interferon (α) and tumor necrosis factor (α) (IFN and TNF, respectively) secreted into culture media as described by Testerman et al. in “Cytokine Induction by the Immunomodulators Imiquimod and S-27609,” Journal of Leukocyte Biology, 58, 365-372 (September, 1995).
Whole blood from healthy human donors is collected by venipuncture into EDTA vacutainer tubes. Peripheral blood mononuclear cells (PBMC) are separated from whole blood by density gradient centrifugation using HISTOPAQUE-1077. Blood is diluted 1:1 with Dulbecco's Phosphate Buffered Saline (DPBS) or Hank's Balanced Salts Solution (HBSS). […]
Following incubation the plates are centrifuged for 10 minutes at 1000 rpm (approximately 200×g) at 4° C. […] The samples are analyzed for interferon (α) by ELISA and for tumor necrosis factor (α) by ELISA or IGEN Assay.
Interferon (α) concentration is determined by ELISA using a Human Multi-Species kit from PBL Biomedical Laboratories, New Brunswick, N.J. Results are expressed in pg/mL.
Tumor necrosis factor (α) (TNF) concentration is determined using ELISA kits available from Biosource International, Camarillo, Calif. Alternately, the TNF concentration can be determined by ORIGEN M-Series Immunoassay and read on an IGEN M-8 analyzer from IGEN International, Gaithersburg, Md. […]

[2] = system: cytokine biosynthesis; details: U.S. Pat. No. 6,194,425; cited from earlier work
[3] = Hygroscopicity / water sorption of the crystalline form; assay type: physicochemical; details: experimentally determined
Experimental: The automated analysis of water sorption was performed using a VTI Symmetrical Gravimetric Analyzer Model 100 (SGA-100) operated in Step-Isotherm mode. The sample was exposed to a cycle of relative humidity (RH) conditions at 25° C. The relative humidity was cycled from 5% to 95% and back to 5% in increments of 5%, and the weight of the sample at each stage was recorded after equilibration (less than 0.01% weight change within 5 minutes). The percent weight change of the sample as a function of the relative humidity was plotted to yield the adsorption/desorption isotherm.

[4] = Relative stability of the crystalline form; assay type: physicochemical

SMILES: CC(C)Cn1cnc2c(N)nc3cccnc3c21.CCS(=O)(=O)O [1-(2-methylpropyl)-1H-imidazo[4,5-c][1,5]naphthyridin-4-amine ethanesulfonate]
- induction of production of interferon α and/or tumor necrosis factor α [1]: induce the production of certain cytokines; also recorded: inducing the production of interferon α and/or tumor necrosis factor α

SMILES: CC(C)Cn1cnc2c(N)nc3cccnc3c21 [1-(2-methylpropyl)-1H-imidazo[4,5-c][1,5]naphthyridin-4-amine]
- ability to induce cytokine biosynthesis [2]: induce cytokine biosynthesis

SMILES: CC(C)Cn1cnc2c(N)nc3cccnc3c21.CCS(=O)(=O)O.O (hydrate or solvate)
- melting point: 220 to 221 °C and 221.5 to 223.4 °C

SMILES: CC(C)Cn1cnc2c(N)nc3cccnc3c21.CCS(=O)(=O)O [Form B, 1-(2-methylpropyl)-1H-imidazo[4,5-c][1,5]naphthyridin-4-amine ethanesulfonate]
- hygroscopicity [3]: hygroscopic

SMILES: CC(C)Cn1cnc2c(N)nc3cccnc3c21.CCS(=O)(=O)O.O [Form C, 1-(2-methylpropyl)-1H-imidazo[4,5-c][1,5]naphthyridin-4-amine ethanesulfonate monohydrate]
- stability of crystalline form [4]: relatively stable

— patent US20090124652A1, “Polymorphs of 1-(2-Methylpropyl)-1H-Imidazo[4,5-C][1,5]Naphthyridin-4-Amine Ethane-Sulfonate” (Takeda Pharmaceutical Company Limited, priority 2004, published 2009)
